Ki and IC50 data for 32 compounds are collected here from ChEMBL document CHEMBL1165981, “Identification of novel quinazolin-4(3H)-ones as inhibitors of thermolysin, the prototype of the M4 family of proteinases” (Bioorg Med Chem, 2010).

Each structure is given as a SMILES string.

The Ki is the equilibrium dissociation constant of an inhibitor or competing ligand from its target. What is called IC50 is the midpoint of a concentration-inhibition curve.

For test [1], the target named is T1, Thermolysin (Bacillus thermoproteolyticus, UniProt P00800).
T1 sequence (P00800 whole entry): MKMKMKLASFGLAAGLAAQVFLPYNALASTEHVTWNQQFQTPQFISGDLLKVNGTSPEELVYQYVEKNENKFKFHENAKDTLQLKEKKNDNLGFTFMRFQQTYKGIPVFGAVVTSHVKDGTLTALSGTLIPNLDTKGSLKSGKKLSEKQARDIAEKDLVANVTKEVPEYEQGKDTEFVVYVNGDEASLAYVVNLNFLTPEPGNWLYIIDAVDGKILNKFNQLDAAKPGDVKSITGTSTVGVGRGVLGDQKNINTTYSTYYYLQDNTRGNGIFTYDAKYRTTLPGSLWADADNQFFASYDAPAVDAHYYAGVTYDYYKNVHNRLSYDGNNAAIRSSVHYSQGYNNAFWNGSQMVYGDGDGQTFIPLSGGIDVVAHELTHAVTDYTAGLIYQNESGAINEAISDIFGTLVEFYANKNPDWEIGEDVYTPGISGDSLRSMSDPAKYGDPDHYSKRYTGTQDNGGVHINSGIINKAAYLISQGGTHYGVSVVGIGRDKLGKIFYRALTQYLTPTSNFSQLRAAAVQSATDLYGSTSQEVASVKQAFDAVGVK
The test is described as follows: Inhibition of Bacillus thermoproteolyticus thermolysin after 15 mins by microplate spectrophotometric analysis in presence of 0.5 to 2 mM substrate FaGLa.

The target of test [2] is T1, Thermolysin. Kind of test: Inhibition of Bacillus thermoproteolyticus thermolysin after 15 mins by microplate spectrophotometric analysis in presence of 1.0 mM substrate FaGLa.

Regarding `Nn1c(-c2ccc([N+](=O)[O-])cc2)nc2ccccc2c1=O`, the inhibition constant (Ki) on Thermolysin [1] came out at 3120 µM. Further, the IC50 on Thermolysin [2] (read-out: IC50) came out at 3120 µM.
Take `Cc1cc(C)c(-n2c(-c3ccccc3)nc3ccccc3c2=O)c(C)c1`: at Thermolysin [2], the IC50 entry is listed as “Not Active”.
As for `CC(=O)Nn1c(C)nc2ccccc2c1=O`, on Thermolysin [2], the half-inhibitory concentration (IC50) result is reported as “Not Active”.
With `O=c1c2ccccc2ncn1CCO`, the IC50 result on Thermolysin [2] is listed as “Not Active”.
On the same count and under the same terms, the result for `CCc1nc2ccccc2c(=O)[nH]1` reads “Not Active”.
As to `Cc1nc2ccccc2c(=O)n1N=C(N)N`, the half-maximal inhibitory concentration (IC50) result on Thermolysin [2] was “Not Active”.
Regarding `O=c1[nH]c(-c2ccc(Cl)cc2)nc2ccccc12`, at Thermolysin [1], the Ki amounted to 1.25 µM. Besides, the concentration for half-maximal inhibition (IC50) on Thermolysin [2] (read-out: IC50) came to 1.25 µM.
`Cc1nc2ccccc2c(=O)n1N`: the Ki on Thermolysin [1] is 54.9 µM. The IC50 on Thermolysin [2] (read-out: IC50) was 54.9 µM.
For `O=c1c2ccccc2nc2n1NC(c1ccccc1)N(/N=C/c1ccccc1)C2` (stereo unspecified), the IC50 entry on Thermolysin [2] is “Not Active”.
As to `O=c1c2ccccc2nc(-c2ccccc2)n1-c1nccs1`, the IC50 entry on Thermolysin [2] is given as “Not Active”.
As to `Cc1nc2ccccc2c(=O)n1NC(=O)c1ccccc1`, the IC50 entry on Thermolysin [2] is “Not Active”.
Same read-out and setting: the result for `Cc1ccc(-c2nc3ccccc3c(=O)n2CCN)cc1` reads “Not Active”; that for `NNc1nc2ccccc2c(=O)n1N`, “Not Active”.
Take `Nn1c(-c2ccccc2)nc2ccccc2c1=O`: on Thermolysin [2], the IC50 result is on record as “Not Active”.
The same measure, in the same setting: for `CC(=O)Nn1c(-c2ccccc2)nc2ccccc2c1=O` the value was “Not Active”; for `CCOC(=O)Cc1nc2ccccc2c(=O)[nH]1`, “Not Active”; for `Cc1nc2ccccc2c(=O)n1NC(=O)CCl`, “Not Active”.
For `O=C(Nc1ccccc1C(=O)NCCCn1c(-c2ccccc2)nc2ccccc2c1=O)c1ccccc1`, the IC50 result at Thermolysin [2] is “Not Active”.
With `Cc1ccc(-c2nc3ccccc3c(=O)n2CCCN)cc1`, the IC50 result at Thermolysin [2] was “Not Active”.
The same measure, in the same setting: for `Cc1ccc(C(=O)Nn2c(C)nc3ccccc3c2=O)cc1` the value was “Not Active”; for `O=c1c2ccccc2nc(-c2ccccc2)n1-c1ccc(I)cc1`, “Not Active”.
With `CC(C)=NN1C(=O)c2ccccc2NC1(C)C`, on Thermolysin [1], the Ki was 0.243 µM. In addition, on Thermolysin [2] (read-out: IC50), the IC50 amounted to 0.248 µM.
Turning to `Nn1c(-c2ccc(Cl)cc2)nc2ccccc2c1=O`, the Ki on Thermolysin [1] is 10100 µM. Further, on Thermolysin [2] (read-out: IC50), the IC50 is 12700 µM.
Consider `Cc1nc2ccccc2c(=O)n1CCO`, for which the IC50 result on Thermolysin [2] was “Not Active”.
Turning to `CO/C(C)=N/n1c(-c2ccccc2)nc2ccccc2c1=O`, the Ki at Thermolysin [1] amounted to 106000 µM. For the same compound, the IC50 at Thermolysin [2] (read-out: IC50) was 123000 µM.
Regarding `COC(=O)c1ccccc1NC(=O)C(F)(F)F`, the IC50 result on Thermolysin [2] is “Not Active”.
As to `Nn1c(C(F)(F)F)nc2ccccc2c1=O`, the inhibition constant (Ki) at Thermolysin [1] stood at 37.9 µM. In addition, the concentration for half-maximal inhibition (IC50) on Thermolysin [2] (read-out: IC50) came to 37.9 µM.
Turning to `O=c1c2ccccc2nc(C(F)(F)F)n1-c1ccccc1`, the Ki at Thermolysin [1] was found to be 0.0115 µM. Moreover, at Thermolysin [2] (read-out: IC50), the IC50 turned out to be 0.0115 µM.
Consider `O=C1c2ccccc2NC(c2ccccc2)N1/N=C/c1ccccc1` (stereo unspecified), for which the half-maximal inhibitory concentration (IC50) entry on Thermolysin [2] is given as “Not Active”.
Turning to `C/C(=N\n1c(-c2ccccc2)nc2ccccc2c1=O)Nc1cccc2ccccc12`, the IC50 entry on Thermolysin [2] is “Not Active”.
As for `O=c1[nH]c(-c2ccc([N+](=O)[O-])cc2)nc2ccccc12`, the IC50 entry on Thermolysin [2] is “Not Active”.
As to `Cc1ccc(-c2nc3ccccc3c(=O)n2-c2nccs2)cc1`, the Ki on Thermolysin [1] turned out to be 59.3 µM. Also, at Thermolysin [2] (read-out: IC50), the half-maximal inhibitory concentration (IC50) is 76.8 µM.
